In patent US7371536B2, “Methods for transporting vitamin C” (priority 1999, dated 2008):

How the values were obtained:
Format in all cases: cell-based
human SVCT1 = molecular target: T1, human SVCT1 (Homo sapiens, UniProt Q9UHI7); assay: Two-microelectrode voltage-clamp of Xenopus oocytes expressing human SVCT1
T1 construct: expressed in transfected cells; host or cells: Xenopus laevis oocytes injected with cRNA (vector pTLN2)
Experimental: Functional characterization in Xenopus oocytes—SVCT1 and SVCT2 cDNAs were subcloned into the pTLN2 vector (to improve functional expression in oocytes) and used for cRNA synthesis in vitro using the MEGAscript kit and T7 RNA polymerase (from Ambion). Oocytes were isolated from Xenopus laevis, treated with collagenase A and maintained at 18° C. in modified Barths' medium. Oocytes were injected with 15 ng SVCT1 or SVCT2 cRNA or water only. The radiotracer uptake and voltage-clamp experiments described below were conducted 2-5 days post-injection in standard medium of composition 100 mM NaCl, 2 mM KCl, 1 mM CaCl2, 1 mM MgCl2, and 10 mM HEPES (buffered to pH 7.5 with Tris base). For low-Na^+ or Na^+-free media, NaCl was replaced with choline chloride. For pH-dependence experiments, Na^+ media were buffered to between pH 5.5 and pH 8.0 using 0-5 mM MES, 0-5 mM HEPES and 0-5 mM Tris base. L-Ascorbic acid-containing solutions were always freshly prepared and used immediately. Radiotracer uptake was determined by incubating 8-12 oocytes for 30 min (within the time-course of linear uptake) in standard Na^+, low-Na^+ or Na^+-free media with 10-500 μM L-[1-^14C]ascorbic acid (final specific activity ≈0.3 GBq/mmol). Oocytes were solubilized with 10% SDS and carbon-14 content measured by liquid scintillation counting. A two-microelectrode voltage-clamp was used to measure currents associated with SVCT1 expressed in oocytes. Oocytes were superfused at 22° C. in standard Na^+ medium and clamped at −50 mV. Current was continuously monitored by sampling at 1 Hz. Test solutions were always washed out with substrate-free, Na^+-free medium at pH 7.5 for several minutes. Once again, saturation kinetics data were fit to a modified Hill equation in which I and Imax were replaced by uptake V and maximal velocity Vmax for analysis of radiotracer uptake data.

rat SVCT2 = molecular target: T2, rat SVCT2 (Rattus norvegicus, UniProt Q9WTW8); assay: Two-microelectrode voltage-clamp of Xenopus oocytes expressing rat SVCT2; settings: oocytes expressing SVCT2, in the presence of Na^+
T2 construct: expressed in transfected cells; host or cells: Xenopus laevis oocytes injected with cRNA (vector pTLN2)
T2 sequence (Q9WTW8 whole entry): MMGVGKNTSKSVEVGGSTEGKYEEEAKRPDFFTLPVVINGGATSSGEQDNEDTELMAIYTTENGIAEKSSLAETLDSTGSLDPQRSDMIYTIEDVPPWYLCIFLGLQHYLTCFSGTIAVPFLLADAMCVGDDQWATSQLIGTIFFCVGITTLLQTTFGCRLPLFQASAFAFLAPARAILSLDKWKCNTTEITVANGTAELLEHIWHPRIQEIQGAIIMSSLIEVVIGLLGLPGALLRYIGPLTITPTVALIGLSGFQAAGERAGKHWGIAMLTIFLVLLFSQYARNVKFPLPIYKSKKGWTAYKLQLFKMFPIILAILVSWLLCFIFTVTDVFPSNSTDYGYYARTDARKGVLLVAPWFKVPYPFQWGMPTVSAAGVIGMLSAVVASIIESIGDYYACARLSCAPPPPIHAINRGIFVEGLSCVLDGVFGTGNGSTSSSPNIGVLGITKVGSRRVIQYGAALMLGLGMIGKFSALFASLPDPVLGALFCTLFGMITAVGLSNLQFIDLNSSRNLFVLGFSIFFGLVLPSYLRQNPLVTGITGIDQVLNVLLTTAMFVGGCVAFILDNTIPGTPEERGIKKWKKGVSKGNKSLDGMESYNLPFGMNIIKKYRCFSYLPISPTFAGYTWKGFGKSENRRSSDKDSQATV
Experimental: Rat SVCT1 and SVCT2 clones were obtained by isolating SVCT1 cDNA from rat kidney by expression cloning as described in Hediger et al., Methods Enzymol. 296:17-52 (1998). The SVCT2 cDNA was subsequently isolated by PCR-based homology screening of a rat brain cDNA library. A 2.5-kb rabbit cDNA with 96% identity to residues 96-505 of the rat SVCT2 was obtained by RT-PCR. Radiotracer and voltage-clamp experiments were performed (at 22° C.) in Xenopus oocytes two to seven days after injection with ˜25 ng of SVCT1 or SVCT2 cRNA synthesized in vitro. Radiotracer uptake was determined by incubating 6-10 oocytes for 30 or 60 min in standard 100 mM Na^+ or Na^+-free media with 10-600 μM L-[^14C]ascorbic acid. […]
Radiotracer uptake was determined by incubating 6-10 oocytes for 30 or 60 min in standard Na^+ or Na^+-free media (at 22° C.) with 10-600 μM L-[1-^14C]ascorbic acid (final specific activity 0.3 GBq/mmol). Oocytes were solubilized with 10% SDS and [^14C]-content was measured by liquid scintillation counting. […] Steady-state data (obtained by averaging the points over the final 16.7 ms at each Vm step when step-changes were applied) were fitted to equation (1) below, for which I is the evoked current (i.e., the difference in steady-state current measured in the presence and absence of substrate), Imax the derived current maximum, S the concentration of substrate S (Na^+ or L-ascorbic acid), […]

rat SVCT1 = molecular target: T3, rat SVCT1 (Rattus norvegicus, UniProt Q9WTW7); assay: Two-microelectrode voltage-clamp of Xenopus oocytes expressing rat SVCT1
T3 construct: expressed in transfected cells; host or cells: Xenopus laevis oocytes injected with cRNA
T3 sequence (Q9WTW7 whole entry): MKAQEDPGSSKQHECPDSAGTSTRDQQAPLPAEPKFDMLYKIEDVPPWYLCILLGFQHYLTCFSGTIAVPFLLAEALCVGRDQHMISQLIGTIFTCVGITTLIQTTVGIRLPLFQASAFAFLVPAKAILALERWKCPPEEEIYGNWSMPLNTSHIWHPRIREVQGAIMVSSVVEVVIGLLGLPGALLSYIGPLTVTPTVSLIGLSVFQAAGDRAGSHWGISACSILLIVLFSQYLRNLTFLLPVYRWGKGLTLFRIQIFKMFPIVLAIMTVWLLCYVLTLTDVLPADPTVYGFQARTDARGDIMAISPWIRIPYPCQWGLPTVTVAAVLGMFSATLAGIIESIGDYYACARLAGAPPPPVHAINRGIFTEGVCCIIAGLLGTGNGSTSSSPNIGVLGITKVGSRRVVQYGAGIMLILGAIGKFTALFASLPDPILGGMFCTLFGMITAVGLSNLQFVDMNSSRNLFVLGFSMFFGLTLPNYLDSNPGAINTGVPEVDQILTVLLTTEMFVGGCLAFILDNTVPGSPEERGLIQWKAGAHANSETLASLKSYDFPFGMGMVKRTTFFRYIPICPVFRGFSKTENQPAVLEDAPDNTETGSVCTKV
Experimental: Rat SVCT1 and SVCT2 clones were obtained by isolating SVCT1 cDNA from rat kidney by expression cloning as described in Hediger et al., Methods Enzymol. 296:17-52 (1998). The SVCT2 cDNA was subsequently isolated by PCR-based homology screening of a rat brain cDNA library. […] Radiotracer and voltage-clamp experiments were performed (at 22° C.) in Xenopus oocytes two to seven days after injection with ˜25 ng of SVCT1 or SVCT2 cRNA synthesized in vitro. Radiotracer uptake was determined by incubating 6-10 oocytes for 30 or 60 min in standard 100 mM Na^+ or Na^+-free media with 10-600 μM L-[^14C]ascorbic acid.
Functional characterization of SVCT1 and SVCT2 in Xenopus oocytes—Oocytes were isolated from Xenopus laevis (under 2-aminoethylbenzoate anaesthesia), treated with collagenase A and stored at 18° C. in modified Barths' medium. Oocytes were injected with ≈25 ng of SVCT1 or SVCT2 cRNA synthesized in vitro, or water only (control), and incubated 2-7 days before radiotracer or voltage-clamp experiments were performed. Standard Na^+ uptake medium comprised 100 mM NaCl, 2 mM KCl, 1 mM CaCl2, 1 mM MgCl2, 10 mM HEPES (pH 7.5 with Tris base). For Na^+-free or low-Na^+ media, NaCl was replaced by equimolar choline chloride; likewise, Cl^− was replaced by gluconate for Cl^−-free medium. For pH-sensitivity experiments, Na^+ media were buffered at pH 5.5-8.0 using 0-5 mM MES, 0-5 mM HEPES and 0-5 mM Tris base. L-Ascorbic acid-containing solutions were freshly-prepared (without dithiothreitol) and used immediately.
Radiotracer uptake was determined by incubating 6-10 oocytes for 30 or 60 min in standard Na^+ or Na^+-free media (at 22° C.) with 10-600 μM L-[1-^14C]ascorbic acid (final specific activity 0.3 GBq/mmol). Oocytes were solubilized with 10% SDS and [^14C]-content was measured by liquid scintillation counting. A two-microelectrode voltage-clamp was used to measure currents in control oocytes and oocytes injected with rat SVCT1 or rat SVCT2 cRNA. Microelectrodes (resistance 0.5-5 MΩ) were filled with 3 M KCl. Oocytes were superfused at 22° C. in standard Na^+ medium and clamped at a holding potential (Vh) of −50 mV. For continuous current monitoring at Vh=−50 mV, the current was low-pass filtered at 20 Hz (sampling at 1 Hz). Additionally, step-changes in membrane potential (Vm) were applied (from +50 mV to −150 mV in 20-mV increments), each for a duration of 100 ms, before and after the addition of substrate; current was low-pass filtered at 500 Hz and digitized at 5 kHz. Test solutions were always washed out with substrate-free medium (100 mM choline chloride) at pH 7.5 for several minutes. Steady-state data (obtained by averaging the points over the final 16.7 ms at each Vm step when step-changes were applied) were fitted to equation (1) below, for which I is the evoked current (i.e., the difference in steady-state current measured in the presence and absence of substrate), Imax the derived current maximum, S the concentration of substrate S (Na^+ or L-ascorbic acid),
[formula] the substrate concentration at which current was half-maximal, and nH the Hill coefficient for S. (For radiotracer experiments, I was replaced with velocity V and Imax replaced with the derived maximal velocity, Vmax.)

T1 sequence (Q9UHI7 whole entry): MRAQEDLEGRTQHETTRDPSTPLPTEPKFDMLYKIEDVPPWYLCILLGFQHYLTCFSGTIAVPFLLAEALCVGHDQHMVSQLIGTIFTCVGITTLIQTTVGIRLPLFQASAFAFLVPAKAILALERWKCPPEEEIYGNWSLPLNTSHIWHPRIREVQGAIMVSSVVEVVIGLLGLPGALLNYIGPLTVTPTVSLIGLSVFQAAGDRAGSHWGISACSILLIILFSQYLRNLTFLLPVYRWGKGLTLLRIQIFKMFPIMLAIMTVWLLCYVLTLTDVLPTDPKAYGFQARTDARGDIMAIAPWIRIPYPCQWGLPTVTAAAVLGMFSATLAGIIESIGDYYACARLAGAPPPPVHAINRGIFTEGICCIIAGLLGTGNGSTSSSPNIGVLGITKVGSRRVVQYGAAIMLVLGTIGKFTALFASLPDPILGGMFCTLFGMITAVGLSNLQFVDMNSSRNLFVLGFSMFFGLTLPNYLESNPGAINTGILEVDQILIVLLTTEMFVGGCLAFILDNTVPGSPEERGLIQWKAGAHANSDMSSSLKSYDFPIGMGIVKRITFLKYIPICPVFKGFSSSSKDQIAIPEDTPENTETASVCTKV

reduction in current at pH 5.5 compared with pH 7.5 (human SVCT1; 500 μM L-ascorbic acid, −50 mV): > 60% | L-ascorbic acid-evoked current (human SVCT1; 500 μM, −50 mV, mean±SEM from eight oocytes): −114±20 nA | L-ascorbic acid-evoked reversible inward currents (human SVCT1; in the presence of extracellular Na^+): up to −150 nA | K0.5 based on evoked currents (human SVCT1; −50 mV, 100 mM Na^+, mean±propagated SEM from 5 oocytes): 54 ± 10 µM | L-ascorbic acid-evoked reversible inward currents (rat SVCT2): up to −10 nA | Hill coefficient (nH) (rat SVCT1; evoked currents, −50 mV): ≈ 1 | reduction of evoked currents at pH 5.5 versus pH 7.5 (rat SVCT1; extracellular pH 5.5 compared with pH 7.5): 50% | L-ascorbic acid-evoked reversible inward currents (rat SVCT1; oocytes expressing SVCT1, in the presence of Na^+): up to −100 nA | K0.5 (L-ascorbic acid concentration at which currents were half-maximal) (rat SVCT1; −50 mV, 100 mM Na^+): 30 µM
Compound: O=C1O[C@H]([C@@H](O)CO)C(O)=C1O [L-ascorbic acid]
